From patent publication US8962613B2, “P2X4 receptor antagonist” (Nippon Chemiphar Co., Ltd., priority 2010, dated 2015)
Structures can show the parent of a compound that is named as a salt. Where two headings read alike, the source gives them in different places.

Target: T1, human P2X4 receptors (Homo sapiens, UniProt Q99571)
T1 sequence (Q99571 1-388): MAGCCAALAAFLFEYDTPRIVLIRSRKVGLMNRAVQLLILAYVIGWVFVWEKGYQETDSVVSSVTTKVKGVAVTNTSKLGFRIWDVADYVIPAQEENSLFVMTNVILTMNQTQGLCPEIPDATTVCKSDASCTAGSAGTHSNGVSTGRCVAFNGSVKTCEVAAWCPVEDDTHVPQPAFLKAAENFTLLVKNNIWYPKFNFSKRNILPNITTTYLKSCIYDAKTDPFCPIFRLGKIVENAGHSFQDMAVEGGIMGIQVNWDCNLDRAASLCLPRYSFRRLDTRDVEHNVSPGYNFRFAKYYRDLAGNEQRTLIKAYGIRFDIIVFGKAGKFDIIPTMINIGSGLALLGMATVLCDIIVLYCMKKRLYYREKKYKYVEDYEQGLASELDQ
Assay: P2X4 receptor antagonism, intracellular calcium influx assay (Fura-2 AM, ATP-induced)
Format: cell-based
Details: for IC50: 1321N1 cells stably expressing human P2X4 receptors, compound added 15 min before ATP, read-out: Inhibition activities (IC50 μM)
Procedure: 1321N1 cells stably expressing human P2X4 receptors were adopted for calcium influx assay. P2X4/1321N1 cells were plated in 96-well assay plate and cultured for 24 hours in an atmosphere of 5% CO2 at 37° C. Fura-2 AM calcium indicator dissolved in an extracellular solution for calcium imaging was loaded onto cells for 45 minutes at room temperature. The fluorescence was detected by FLUOstar OPTIMA micro plate reader (BMG labtech). The cells were alternatively illuminated with two excitations wavelengths (340 nm and 380 nm) via xenon lamp and the emitted fluorescence was measured at 510 nm. The fluorescence changes after the treatment of 1 μM ATP were monitored and determined the fluorescence ratio (F340/F380) as the index of intracellular calcium change. Tested compounds were treated to cells 15 min before the addition of ATP and the inhibition activities of compounds were calculated by comparing the Ca^2+ response with control in the absence of tested compound.
P2X4 receptor antagonism of the compound of the present invention was measured as described below.
1321N1 cells stably expressing human P2X4 receptors were plated in 96-well assay plate and cultured for 24 hours at 37° C. in an atmosphere of 5% CO2 for intracellular calcium assay. Fura-2 AM calcium fluorescent indicator was used for the intracellular calcium assay. Fura-2 AM was dissolved in an assay buffer, and the solution was loaded onto cells. The obtained plate was used for fluorescent assay.
Test compounds were treated to cells for 15 minutes before the addition of ATP, and the response to intracellular calcium influx induced by addition of ATP was monitored by a micro plate reader. The fluorescence ratio of excitations wavelengths of 340 nm and 380 nm was used as the index of intracellular calcium change. The inhibition activities of the test compounds were calculated by comparison with the absence of the test compound (control).

[1] = Table 20, same manner as in Example 19
[2] = Table 19, fluorescence ratio F340/F380 vs control

SMILES | IC50 [1] | other results
CNc1ccc(N2C(=O)CC(=O)Nc3c2ccc2c3CCCC2)cc1 [Example 11, 5-(4-Methylaminophenyl)-1,5,8,9,10,11-hexahydronaphtho[1,2-b][1,4]diazepine-2,4-dione hydrochloride] | 3.3 µM | –
COc1ccc(N2C(=O)CC(=O)Nc3c2ccc2c3CCCC2)cc1 [Example 13, 5-(4-Methoxyphenyl)-1,5,8,9,10,11-hexahydronaphtho[1,2-b][1,4]diazepine-2,4-dione] | 6.9 µM | –
O=C1CC(=O)N(c2ccc(O)cc2)c2ccc3c(c2N1)CCCC3 [Example 14, 5-(4-Hydroxyphenyl)-1,5,8,9,10,11-hexahydronaphtho[1,2-b][1,4]diazepine-2,4-dione] | 3.8 µM | –
O=C1CC(=O)N(c2cccc(O)c2)c2ccc3c(c2N1)CCCC3 [Example 3, 5-(3-Hydroxyphenyl)-8,9,10,11-tetrahydronaphtho[2,1-b][1,4]diazepine-2,4(3H,5H)-dione] | – | IC50 [2]: 3.9 µM
O=C1CC(=O)N(c2cccc(-c3nnn[nH]3)c2)c2ccc3c(c2N1)CCCC3.[Na] [Example 2, 5-[3-(1H-Tetrazol-5-yl)phenyl]-8,9,10,11-tetrahydronaphtho[2,1-b][1,4]diazepine-2,4(3H,5H)-dione sodium salt] | – | P2X4 receptor antagonism (in words) (summary statement on Tables 19 and 20): excellent P2X4 receptor antagonism
Nc1ccc(N2C(=O)CC(=O)Nc3c2ccc2c3CCCC2)cc1 [Example 10, 5-(4-Aminophenyl)-1,5,8,9,10,11-hexahydronaphtho[1,2-b][1,4]diazepine-2,4-dione] | 6.1 µM | –
Nc1cccc(N2C(=O)CC(=O)Nc3c2ccc2c3CCCC2)c1 [Example 8, 5-(3-Aminophenyl)-1,5,8,9,10,11-hexahydronaphtho[1,2-b][1,4]diazepine-2,4-dione hydrochloride] | 4 µM | –
O=C1CC(=O)N(c2cccc(-c3nnn[nH]3)c2)c2ccc3c(c2N1)CCC3 [Example 5, 5-[3-(1H-Tetrazol-5-yl)phenyl]-5,8,9,10-tetrahydroindeno[5,4-b][1,4]diazepine-2,4(1H,3H)-dione sodium salt] | – | IC50 [2]: 0.97 µM
